The numbers were not newly measured in patent US6518254B1, “Ribonucleoside-TRIBOSE” (priority 2002, dated 2003), which cites them from elsewhere.

The conditions of data set [1]: compared with Ribavirin.
In data set [2] the test system is DNA and RNA viruses. The settings on record: in vitro tissue culture; at least 16 DNA and RNA viruses; Science, 177, 705, 1972.

For the molecule `NC(=O)c1ncn([C@H]2O[C@@H](CO)[C@H](O)[C@@H]2O)n1` (single isomer, unassigned) [L isomer of Ribavirin], the immuno-modulatory activity result in data set [1] was “immuno-modulatory activity similar to Ribavirin”.
As to `NC(=O)c1ncn([C@@H]2O[C@H](CO)[C@@H](O)[C@H]2O)n1` [Ribavirin, 1-beta-D-ribofuranosyl-1H-1,2,4-triazole-3-carboxamide], the “antiviral activity in tissue culture” value in data set [2] was “active against at least 16 DNA and RNA viruses”.
